Test system: DSS-induced colitis in C57BL/6 mice
Experiment: DSS-induced colitis model, mean over animals of Examples 1A and 1B
Format: in vivo
Conditions: vs vehicle control
Experimental: Mean Endoscopy/Stool Consistency Scores and Mean Weight Change: The mean of the endoscopy and stool consistency scores from Days 10 and 14 observed from Examples 1A and 1B was determined to provide a mean endoscopy score and mean stool consistency score for Days 10 and 14 in the DSS-induced colitis model (i.e., mean that includes the animals from Examples 1A and 1B). FIGS. 11A and 12A show the Mean Endoscopy score. FIGS. 11B and 12B show the Mean Stool Consistency score.
The percent change in body weight on Day 14 from Examples 1A and 1B were averaged to provide mean percent body weight change for Day 14 in the DSS-induced colitis model (i.e., mean that includes the animals from Examples 1A and 1B).

Cn1c(=O)oc2ccc(-c3ccc(C[C@@H](C#N)NC(=O)[C@@H]4CNCCCO4)cc3)cc21 [INS1007, (2S)—N-{(1S)-1-cyano-2-[4-(3-methyl-2-oxo-2,3-dihydro-1,3-benzoxazol-5-yl)phenyl]ethyl}-1,4-oxazepane-2-carboxamide]
significantly reduced: mean endoscopy score (Examples 1A and 1B) (Day 10, 0.3 mg/kg) | mean stool consistency score (Examples 1A and 1B) (Day 10, 0.3 mg/kg) | mean endoscopy score (Examples 1A and 1B) (Day 10, 3 mg/kg) | average mean endoscopy score (Examples 1A and 1B) (Day 14, 0.3 mg/kg) | average mean weight change (percent body weight change, Examples 1A and 1B) (Day 14, 0.3 mg/kg, lost less weight) | stool consistency score (Examples 1A and 1B) (Day 14, 3 mg/kg)

Source: patent US20210252015A1, “CERTAIN (2S)-N-[(1S)-1-CYANO-2-PHENYLETHYL]-1,4-OXAZEPANE-2-CARBOXAMIDES FOR TREATING INFLAMMATORY BOWEL DISEASE” (Insmed Incorporated, priority 2018, published 2021)
